The results in this text go back to patent US4232121A, “Process for selecting methine dyes which inhibit cell growth” (Eastman Kodak Company, priority 1978, dated 1980).

Values joined by “and” are separate entries in the source; they are usually repeats but may differ in a detail not shown here. Equal entries are not always repeated. Where two headings read alike, the source gives them in different places.

A short description of data set [1]: Oxidation potential (Eox) of the dye. Format: physicochemical. As to conditions: Tables I, II, V, VI.
Data set [2] deals with Bacillus pumilus strain K-1. The experiment in a line: Inhibition of bacterial growth, filter paper on inoculated agar plates. The format is cell-based.
A short description of data set [3]: Reduction potential (ER) of the dye.
Data set [4] concerns Bacillus pumilus (K-1). As to the method:
This can be accomplished by contacting a given concentration of the dye with the cells, removing the cells from the dye solution and then comparing the optical density (at λmax) of the remaining dye solution with a control containing the original concentration of the dye. The percentage decrease in optical density indicates the percentage of dye which has been bound to the cells.
The culture was collected by centrifugation at 5,000×g. for 10 minutes, and the resultant pellet was washed several times in cold 0.05 M potassium phosphate buffer, pH 7.0. The pellet was resuspended in the buffer solution to a final optical density of 1.0 at 620 nm as measured with a Bausch and Lomb Spectronic 20.
One-tenth ml of dye solution (1 mg/ml in methanol) was added to a tube containing 5 ml of cell suspension described above and a control tube containing 0.05 M potassium phosphate buffer, pH 7.0. All tubes were well agitated using a Vari-Whirl Mixer (Will Scientific Co.) and then centrifuged at 10,000×g. for 10 minutes.
The percent binding of dye to the cells for each dye, was determined by comparison of the density at λmax of the control supernatant sample with the density at λmax of the supernatant of the cell sample.

The subject of data set [5] is Alcaligenes faecalis. Briefly: Inhibition of bacterial growth, filter paper technique. The format is cell-based. As to conditions: Table VIII; 10^-3 molar; Gram -; 37° C./48 hrs. As to the method: (§1) Schleider and Schuell #740-E filter paper (12.7 mm diameter) was dipped in the dye solution, touched to the side of the beaker to removed excess dye, and placed in the center of the inoculated agar plates (prepared in (B) above). The plates were then incubated at 26° C. for […]. The plates were then examined to determine if bacterial growth had been affected by the dye-containing filter paper. With certain dyes bacterial growth was inhibited in a circular area around the filter paper. With other dyes no such area of inhibition was observed.
(§2) Cultures of various gram-negative and gram-positive bacteria were prepared in nutrient and Tryptic Soy Agar and plates were poured as described in Example 1. Methanolic solutions of cyanine dyes were prepared at 10^-3 molar and applied to the plates using the filter paper technique described in Example 1. Control plates were prepared in which the filter paper contained methanol or a 0.2 molar aqueous solution of phenol. The plates were then incubated at 26° C. or 37° C. for forty-eight hours.

Data set [6] has as its system Bacillus cereus. The data set is described as above. The format is cell-based. To be noted: Bacillus cereus; Table VIII; 10^-3 molar; Gram +; 26° C./48 hrs; read-out: Area of Inhibition (diameter). Here is the method: as §1, §2
Data set [7] has as its system Bacillus megaterium. The description is as above. The format is cell-based. To be noted: Priestia megaterium; Table VIII; 10^-3 molar; Gram +; Tryptic Soy; 37° C./48 hrs; read-out: Area of Inhibition (diameter). As to the method: as §1, §2
Data set [8] has as its system Bacillus subtilis. The data set is described as above. Format: cell-based. As to conditions: Table VIII, 10^-3 molar, Gram +, 26° C./48 hrs, read-out: Area of Inhibition (diameter). Here is the method:
as §1, §2

Data set [9] has as its system Enterobacter aerogenes. Described as above. To be noted: Table VIII; 10^-3 molar; Gram -; 37° C./48 hrs. Format: cell-based. As to the method: as §1, §2
Data set [10] concerns Escherichia coli, Strain B. Described as above. The format is cell-based. To be noted: Table VIII; 10^-3 molar; Gram -; 37° C./48 hrs. As to the method: as §1, §2
Data set [11] concerns Micrococcus flavus. The data set is described as above. Format: cell-based. As to conditions: Micrococcus flavus; Table VIII; 10^-3 molar; Gram +; 26° C./48 hrs; read-out: Area of Inhibition (diameter). As to the method:
as §1, §2

Data set [12] relates to Micrococus luteus. The description is as above. The format is cell-based. As to conditions: Table VIII; 10^-3 molar; Gram +; 26° C./48 hrs; read-out: Area of Inhibition (diameter). Here is the method:
as §1, §2

Data set [13] relates to Proteus vulgaris. The description is as above. To be noted: Table VIII; 10^-3 molar; Gram -; 37° C./48 hrs. The format is cell-based. As to the method:
as §1, §2

Data set [14] concerns Sea Urchin Eggs. The experiment in a line: Inhibition of cell division in fertilized sea urchin eggs. The format is cell-based. As to conditions: arbitrary scale 0 to 5, 5 most active; dye 10^-5 to 10^-6 molar, 60 minutes after fertilization. As to the method: To suspensions in filtered sea water of fertilized sea urchin eggs there was added, three minutes after fertilization, methanolic solutions of the dyes in an amount sufficient to yield a final concentration of dye of between 10^-5 and 10^-6 molar. The final concentration of methanol was, at a maximum 1×10^-4 molar. The eggs were visually observed at 60 minutes after fertilization to determine if cell division and the formation of mitotic apparatus had been inhibited. A rating was assigned based on the concentration of dye required to inhibit cell division and synthesis of DNA.

In data set [15] the test system is the bacteria (various gram-negative and gram-positive). Briefly: Binding of dyes to the bacteria of Example 9. As to conditions: determined as in Example 8. Here is the method:
In addition, binding of dyes 7, 17 and 24 to the bacteria was determined as in Example 8.

For data set [16] the following is noted: not told.
The nature of data set [17]: Solubility / stability comments on the dyes. The format is physicochemical. To be noted: Table IX.
[18] abbreviates: Bacillus pumilus, K1, 48 h, Table VIII, 10^-3 molar, Nutrient, 37° C./48 hrs, read-out: Area of Inhibition (diameter).
Setting [19] is: Bacillus pumilus, K1, 72 h, Tables V and VI, 10^-3 molar, three days, read-out: Diameter of Inhibition.
Setting [20] is: Bacillus pumilus, K1, Table II, 10^-4 molar, 26° C., forty-eight hours, read-out: Diameter of Inhibition.
[21] abbreviates: Bacillus pumilus, K1, Table IX, 10^-3 M, read-out: Diameter of Inhibition.
The mark [22] stands for this setting: Bacillus pumilus, K1, Table IX, 10^-4 M, read-out: Diameter of Inhibition.

As to `CCN1C(=CC=Cc2sc3cc([N+](=O)[O-])ccc3[n+]2CC)Sc2cc([N+](=O)[O-])ccc21` [17,6,6'-dinitro], the Eox result in data set [1] is “+.96”. In addition, in data set [2] (Tables V and VI, 10^-3 molar, three days), the “Diameter of Inhibition” value is “None”. Further, the ER entry in [3] (Tables I, II, V, VI, VII, IX) is recorded as “-.58”.
As to `CCN1C(=CC=Cc2oc3ccccc3[n+]2CC)Oc2ccccc21` [Dye 7], the “Activity Rating” value in [2] amounted to 100. The zone of inhibition at 1000 µM in data set [2] (setting [18]) was 24 mm; in data set [2] (setting [19]) it was 34 mm; in data set [2] (setting [21]) it was 34 mm; in [6], 14 mm; in data set [7], 21 mm; in data set [8] it was 18 mm. Moreover, the values for the zone of inhibition at 1000 µM in data set [11] and in data set [12] were 19 mm and 16 mm, respectively. For the same compound, the zone of inhibition at 100 µM in data set [2] (Bacillus pumilus, K1, Table I, 10^-4 molar, 26° C., fifty hours, dark, read-out: Diameter of Inhibition) was 22.5 mm; in data set [2] (setting [20]), 25.5 mm; in data set [2] (Bacillus pumilus, K1, Table III, 1.0 × 10^-4 M, read-out: Diameter of Inhibition), 26 mm; in [2] (setting [22]), 25.5 mm. Further, the zone of inhibition at 200 µM in data set [2] (Bacillus pumilus, K1, Table III, 2.0 × 10^-4 M, read-out: Diameter of Inhibition) worked out at 29 mm. The zone of inhibition at 25 µM in [2] (Bacillus pumilus, K1, Table III, 2.5 × 10^-5 M, read-out: Diameter of Inhibition) was determined as 14.5 mm. Besides, the zone of inhibition at 50 µM in [2] (Bacillus pumilus, K1, Table III, 5.0 × 10^-5 M, read-out: Diameter of Inhibition) turned out to be 20 mm. Moreover, the “degree of inhibition compared with phenol (in words)” value in [2] (dye 7 at 1×10^-4 molar) is given as “same degree of inhibition as phenol at 2.13×10^-1 molar”. Besides, in data set [2] (dye 7 at 1×10^-4 molar vs phenol at 2.13×10^-1 molar), the “times more active as an inhibitor than phenol” value is listed as around 2000 times. Further, the “% Bound” value in data set [4] is recorded as 31.7%. Also, the “Area of Inhibition (diameter)” value in [5], in data set [9], in data set [10] and in data set [13] was “No” each time. Further, the “Sea Urchin Eggs Activity” value in data set [14] is “+4”. Also, the “binding to the bacteria (in words)” value in data set [15] is “found to bind”. The ER in data set [16] is on record as -1.26. Moreover, in [16], the “reduction potential (ER)” value is -1.26 volts.
As for `CCN1C(=CC=Cc2sc3ccc4ccccc4c3[n+]2CC)Sc2ccc3ccccc3c21` [Dye 12], in data set [4], the “% Bound” value was found to be 93.1%. Besides, the “Sea Urchin Eggs Activity” value in data set [14] was found to be 0. Moreover, in data set [17], the “Comment: solubility” value is on record as “Insoluble”. For the same compound, in data set [16], the ER is -1.12 and the “reduction potential (ER)” value is recorded as -1.12 volts.
In the case of `CCN1C(=CC=Cc2sc3ccccc3[n+]2CC)Sc2ccccc21` [Dye 17], the “Activity Rating” value in data set [2] was 18 and 31. In addition, the “effect upon diameter of inhibition as a result of changing the anion” value in data set [2] (10^-3 molar, three days) is reported as “no effect upon diameter of inhibition”. Further, the zone of inhibition at 1000 µM in data set [2] (setting [18]) is 17 mm; in [2] (setting [19]), 19 mm; in [2] (setting [21]), 19 mm; in [6], 13 mm; in data set [7] it was 14 mm; in data set [8], 15 mm. For the same compound, the zone of inhibition at 1000 µM in [11] worked out at 15 mm; in data set [12], 14 mm. The zone of inhibition at 100 µM in data set [2] (setting [20]) and in [2] (setting [22]) was 16.5 mm throughout. The “% Bound” value in data set [4] turned out to be 73.1%. The “Area of Inhibition (diameter)” value in [5], in [9], in data set [10] and in data set [13] was “No” in each case. Besides, the “Sea Urchin Eggs Activity” value in data set [14] is given as “+4”. Besides, in [15], the “binding to the bacteria (in words)” value is “found to bind”. In data set [16], this compound gave an ER of -1.00. Moreover, the “reduction potential (ER)” value in data set [16] is recorded as -1.00 volts.
Turning to `CCN1C(=CC=Cc2n(CC)c3nc4ccccc4nc3[n+]2CC)N(CC)c2nc3ccccc3nc21` [Dye 24], the Eox entry in data set [1] is “+1.00”. The zone of inhibition at 1000 µM in data set [2] (setting [18]) is 13 mm; in data set [2] (setting [21]), 13 mm; in [6], 13.5 mm; in data set [7], 14 mm; in [8] it was 13 mm; in [11], 13 mm. The zone of inhibition at 1000 µM in data set [12] was found to be 14 mm. The “Diameter of Inhibition” value in [2] (Table II, 10^-4 molar, 26° C., forty-eight hours) is “None”; in [2] (Table IX, 10^-4 M) it was “None”. Moreover, in data set [4], the “% Bound” value is given as 32.8%. In addition, the “Area of Inhibition (diameter)” value in [5] is listed as “No”; in data set [9], “Slight”; in data set [10], “No”; in [13], “No”. Further, the “Sea Urchin Eggs Activity” value in [14] worked out at 0. Also, the “binding to the bacteria (in words)” value in data set [15] is recorded as “found to bind”. Also, in [16], the “reduction potential (ER)” value is -0.79 volts.
`CCN1C(=CC=Cc2sc3cc([N+](=O)[O-])ccc3[n+]2CC)Sc2cc([N+](=O)[O-])ccc21` [Dye 29]: the “Diameter of Inhibition” value in [2] (Table IX, 10^-3 M) is “None”. Moreover, the “Activity Rating” value in data set [2] (Table IX, 10^-3 M, relative to phenol concentration giving equal diameter, Dye 7 = 100 (dye 20 relative to dye 17)) was determined as 0. Moreover, the “% Bound” value in data set [4] (Table IX) amounted to 67.9%. For the same compound, the “Sea Urchin Eggs Activity” value in data set [14] amounted to 0. Moreover, the “reduction potential (ER)” value in data set [3] (list of dyes, vs. silver-silver chloride electrode, 20° C.) is reported as -0.58 volts.
